This is an account of results in ChEMBL document CHEMBL5465560, “Selectivity Literature for EUbOPEN Chemogenomic Library” (2024).

Assay [1] deals with Homeodomain-interacting protein kinase 3 (Homo sapiens, UniProt Q9H422). As to the kind of experiment: Selectivity interaction (KinomeScan (DiscoverX)) EUB0001619a HIPK3. Conditions: at 1 µM.
Assay [2] deals with T1, Ephrin type-B receptor 4 (Homo sapiens) (UniProt P54760).
T1 sequence (whole entry): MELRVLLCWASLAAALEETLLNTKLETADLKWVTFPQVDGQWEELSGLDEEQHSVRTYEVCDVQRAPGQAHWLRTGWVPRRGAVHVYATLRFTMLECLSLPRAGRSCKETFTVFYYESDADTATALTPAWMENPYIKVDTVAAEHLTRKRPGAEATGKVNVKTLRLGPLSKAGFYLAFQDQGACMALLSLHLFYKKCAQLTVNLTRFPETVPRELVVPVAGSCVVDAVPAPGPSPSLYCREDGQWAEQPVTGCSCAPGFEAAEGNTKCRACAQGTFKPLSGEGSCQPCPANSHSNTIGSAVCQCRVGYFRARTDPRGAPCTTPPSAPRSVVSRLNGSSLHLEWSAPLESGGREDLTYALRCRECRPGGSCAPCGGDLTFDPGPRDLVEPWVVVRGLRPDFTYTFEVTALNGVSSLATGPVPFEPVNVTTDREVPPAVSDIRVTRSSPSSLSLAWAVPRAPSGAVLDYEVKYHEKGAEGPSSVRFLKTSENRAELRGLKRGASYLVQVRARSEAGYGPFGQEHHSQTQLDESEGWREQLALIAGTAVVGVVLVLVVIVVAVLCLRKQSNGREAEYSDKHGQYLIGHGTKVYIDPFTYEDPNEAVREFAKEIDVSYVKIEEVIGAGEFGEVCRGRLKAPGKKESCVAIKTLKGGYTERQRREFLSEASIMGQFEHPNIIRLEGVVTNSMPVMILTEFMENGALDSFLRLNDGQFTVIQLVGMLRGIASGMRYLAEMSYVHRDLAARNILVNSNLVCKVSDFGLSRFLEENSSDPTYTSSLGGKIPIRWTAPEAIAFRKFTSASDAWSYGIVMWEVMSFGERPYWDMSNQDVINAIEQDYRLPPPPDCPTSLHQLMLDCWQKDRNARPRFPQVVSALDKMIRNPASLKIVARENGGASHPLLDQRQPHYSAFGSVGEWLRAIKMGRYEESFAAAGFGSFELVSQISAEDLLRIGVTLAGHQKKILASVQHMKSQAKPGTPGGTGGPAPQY
As to the kind of experiment: Selectivity interaction (KinomeScan (DiscoverX)) EUB0001619a EPHB4. To be noted: at 1 µM.

The target of assay [3] is T2, NUAK family SNF1-like kinase 1 (Homo sapiens) (UniProt O60285).
T2 sequence (whole entry): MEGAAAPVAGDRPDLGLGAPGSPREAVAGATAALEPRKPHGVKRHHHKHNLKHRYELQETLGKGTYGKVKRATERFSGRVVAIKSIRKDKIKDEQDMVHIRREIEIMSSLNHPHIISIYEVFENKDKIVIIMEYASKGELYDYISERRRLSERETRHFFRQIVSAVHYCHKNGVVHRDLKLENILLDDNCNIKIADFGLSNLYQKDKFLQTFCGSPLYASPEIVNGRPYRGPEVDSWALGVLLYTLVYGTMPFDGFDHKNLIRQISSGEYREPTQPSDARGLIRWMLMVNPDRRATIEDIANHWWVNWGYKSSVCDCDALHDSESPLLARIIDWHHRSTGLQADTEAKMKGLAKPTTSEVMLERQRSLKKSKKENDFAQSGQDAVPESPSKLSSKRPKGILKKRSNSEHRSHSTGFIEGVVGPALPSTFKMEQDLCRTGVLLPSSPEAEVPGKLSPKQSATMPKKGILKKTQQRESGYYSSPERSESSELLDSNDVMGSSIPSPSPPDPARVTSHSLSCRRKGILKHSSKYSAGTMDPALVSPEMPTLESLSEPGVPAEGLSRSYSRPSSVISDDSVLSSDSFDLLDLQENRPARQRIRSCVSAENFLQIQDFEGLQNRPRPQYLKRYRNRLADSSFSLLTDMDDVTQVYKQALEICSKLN
As to the kind of experiment: Selectivity interaction (ProQinase) EUB0000171b NUAK1.

In assay [4] the target is Ribosomal protein S6 kinase alpha-1 (Homo sapiens, UniProt Q15418). As to the kind of experiment: Selectivity interaction (KinomeScan (DiscoverX)) EUB0000655a RPS6KA1. Conditions: at 10 µM.
Sequence of Ribosomal protein S6 kinase alpha-1 (Q15418 whole entry): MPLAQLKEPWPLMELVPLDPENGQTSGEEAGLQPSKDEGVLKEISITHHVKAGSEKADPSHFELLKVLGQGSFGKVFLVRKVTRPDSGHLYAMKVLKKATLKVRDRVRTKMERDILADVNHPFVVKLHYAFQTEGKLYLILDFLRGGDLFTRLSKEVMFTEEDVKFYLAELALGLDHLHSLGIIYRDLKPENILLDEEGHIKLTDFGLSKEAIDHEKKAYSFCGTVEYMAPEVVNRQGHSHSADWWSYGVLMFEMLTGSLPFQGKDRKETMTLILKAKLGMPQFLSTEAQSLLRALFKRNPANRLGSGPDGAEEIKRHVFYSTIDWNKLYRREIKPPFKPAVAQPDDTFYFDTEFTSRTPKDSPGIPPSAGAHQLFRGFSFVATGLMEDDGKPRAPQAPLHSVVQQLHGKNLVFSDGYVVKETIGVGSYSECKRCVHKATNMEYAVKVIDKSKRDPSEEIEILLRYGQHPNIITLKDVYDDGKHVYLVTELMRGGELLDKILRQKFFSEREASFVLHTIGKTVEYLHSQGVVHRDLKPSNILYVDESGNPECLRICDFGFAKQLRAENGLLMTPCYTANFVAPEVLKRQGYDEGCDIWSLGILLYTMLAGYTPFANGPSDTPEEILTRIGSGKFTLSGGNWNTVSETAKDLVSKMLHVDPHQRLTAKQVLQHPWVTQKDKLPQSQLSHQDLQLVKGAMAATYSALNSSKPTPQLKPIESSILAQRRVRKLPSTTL
For assay [5], the target named is Activin receptor type-1-like (Homo sapiens) (UniProt P37023). As to the kind of experiment: Selectivity interaction (KinomeScan (DiscoverX)) EUB0000092b ACVRL1. Conditions: at 10 µM.
Sequence of Activin receptor type-1-like (Homo sapiens) (P37023 whole entry): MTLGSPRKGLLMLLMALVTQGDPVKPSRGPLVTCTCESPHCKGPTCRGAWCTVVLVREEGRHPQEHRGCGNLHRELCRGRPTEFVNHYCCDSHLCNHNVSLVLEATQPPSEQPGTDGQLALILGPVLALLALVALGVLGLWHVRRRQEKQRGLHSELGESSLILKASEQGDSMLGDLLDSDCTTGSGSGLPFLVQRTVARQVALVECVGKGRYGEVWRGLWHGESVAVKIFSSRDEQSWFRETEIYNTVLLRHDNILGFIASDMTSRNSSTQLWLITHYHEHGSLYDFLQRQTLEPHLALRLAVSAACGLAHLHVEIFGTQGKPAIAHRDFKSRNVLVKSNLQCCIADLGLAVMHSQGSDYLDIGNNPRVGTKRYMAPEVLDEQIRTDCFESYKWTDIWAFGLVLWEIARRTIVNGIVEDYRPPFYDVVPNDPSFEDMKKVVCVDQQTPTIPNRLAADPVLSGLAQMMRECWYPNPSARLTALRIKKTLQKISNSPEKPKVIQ
The target in assay [6] is T3, Receptor-interacting serine/threonine-protein kinase 1 (Homo sapiens) (UniProt Q13546).
T3 sequence (whole entry): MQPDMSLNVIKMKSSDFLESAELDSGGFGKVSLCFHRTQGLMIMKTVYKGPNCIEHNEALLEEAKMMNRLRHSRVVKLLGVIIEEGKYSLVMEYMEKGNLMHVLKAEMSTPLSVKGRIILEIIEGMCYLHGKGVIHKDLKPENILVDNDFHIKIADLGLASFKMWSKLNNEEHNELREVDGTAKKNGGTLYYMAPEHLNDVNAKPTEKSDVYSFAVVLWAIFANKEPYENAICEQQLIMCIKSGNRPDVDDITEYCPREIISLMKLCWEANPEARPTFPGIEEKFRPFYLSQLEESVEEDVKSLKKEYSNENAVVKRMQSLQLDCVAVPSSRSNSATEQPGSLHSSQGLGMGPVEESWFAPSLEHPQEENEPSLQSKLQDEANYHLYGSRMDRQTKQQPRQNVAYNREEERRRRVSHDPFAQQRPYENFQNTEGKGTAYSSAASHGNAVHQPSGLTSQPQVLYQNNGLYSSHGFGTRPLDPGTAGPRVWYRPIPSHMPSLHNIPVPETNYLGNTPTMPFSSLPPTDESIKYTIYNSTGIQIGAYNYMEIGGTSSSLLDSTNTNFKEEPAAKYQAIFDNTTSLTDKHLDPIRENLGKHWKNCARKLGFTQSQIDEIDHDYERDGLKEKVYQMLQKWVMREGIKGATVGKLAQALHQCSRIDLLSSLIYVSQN
As to the kind of experiment: Selectivity interaction (KinomeScan (DiscoverX)) EUB0001079a RIPK1. Conditions: at 1 µM.

Assay [7] concerns the target RAF proto-oncogene serine/threonine-protein kinase (Homo sapiens) (UniProt P04049). As to the kind of experiment: Selectivity interaction (Millipore kinase profiler) EUB0000124b RAF1. To be noted: at 10 µM.

Sequence of Homeodomain-interacting protein kinase 3 (Q9H422 whole entry, looked up): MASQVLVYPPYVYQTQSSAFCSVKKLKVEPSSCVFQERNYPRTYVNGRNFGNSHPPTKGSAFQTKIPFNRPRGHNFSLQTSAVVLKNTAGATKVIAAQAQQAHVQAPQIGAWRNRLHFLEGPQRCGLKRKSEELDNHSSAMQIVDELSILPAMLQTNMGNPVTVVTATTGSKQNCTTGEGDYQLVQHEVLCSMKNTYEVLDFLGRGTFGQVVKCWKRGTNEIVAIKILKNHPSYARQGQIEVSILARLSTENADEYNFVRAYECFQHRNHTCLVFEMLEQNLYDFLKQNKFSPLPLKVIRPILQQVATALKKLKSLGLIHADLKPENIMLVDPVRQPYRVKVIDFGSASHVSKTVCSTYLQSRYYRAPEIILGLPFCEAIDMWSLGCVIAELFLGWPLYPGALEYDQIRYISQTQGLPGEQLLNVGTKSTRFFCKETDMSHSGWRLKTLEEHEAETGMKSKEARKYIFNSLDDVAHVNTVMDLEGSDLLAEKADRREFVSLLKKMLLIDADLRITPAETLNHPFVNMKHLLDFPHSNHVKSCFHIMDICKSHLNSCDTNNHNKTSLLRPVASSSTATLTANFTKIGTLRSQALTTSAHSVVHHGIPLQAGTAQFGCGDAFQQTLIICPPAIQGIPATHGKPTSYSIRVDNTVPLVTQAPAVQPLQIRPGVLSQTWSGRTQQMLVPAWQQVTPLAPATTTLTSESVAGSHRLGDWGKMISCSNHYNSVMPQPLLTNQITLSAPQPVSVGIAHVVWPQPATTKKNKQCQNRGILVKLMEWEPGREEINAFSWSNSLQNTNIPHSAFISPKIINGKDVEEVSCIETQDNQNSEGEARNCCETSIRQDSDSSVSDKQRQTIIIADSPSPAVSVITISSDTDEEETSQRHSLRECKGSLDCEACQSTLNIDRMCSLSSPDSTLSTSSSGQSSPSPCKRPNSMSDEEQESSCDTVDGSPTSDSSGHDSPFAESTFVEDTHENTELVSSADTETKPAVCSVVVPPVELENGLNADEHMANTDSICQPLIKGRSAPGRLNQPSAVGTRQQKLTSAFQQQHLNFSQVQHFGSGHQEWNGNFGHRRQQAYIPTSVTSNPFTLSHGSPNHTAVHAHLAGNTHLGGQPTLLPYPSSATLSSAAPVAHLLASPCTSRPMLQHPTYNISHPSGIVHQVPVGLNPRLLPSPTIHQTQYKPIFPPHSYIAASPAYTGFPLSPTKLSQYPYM
Sequence of RAF proto-oncogene serine/threonine-protein kinase (Homo sapiens) (P04049 whole entry): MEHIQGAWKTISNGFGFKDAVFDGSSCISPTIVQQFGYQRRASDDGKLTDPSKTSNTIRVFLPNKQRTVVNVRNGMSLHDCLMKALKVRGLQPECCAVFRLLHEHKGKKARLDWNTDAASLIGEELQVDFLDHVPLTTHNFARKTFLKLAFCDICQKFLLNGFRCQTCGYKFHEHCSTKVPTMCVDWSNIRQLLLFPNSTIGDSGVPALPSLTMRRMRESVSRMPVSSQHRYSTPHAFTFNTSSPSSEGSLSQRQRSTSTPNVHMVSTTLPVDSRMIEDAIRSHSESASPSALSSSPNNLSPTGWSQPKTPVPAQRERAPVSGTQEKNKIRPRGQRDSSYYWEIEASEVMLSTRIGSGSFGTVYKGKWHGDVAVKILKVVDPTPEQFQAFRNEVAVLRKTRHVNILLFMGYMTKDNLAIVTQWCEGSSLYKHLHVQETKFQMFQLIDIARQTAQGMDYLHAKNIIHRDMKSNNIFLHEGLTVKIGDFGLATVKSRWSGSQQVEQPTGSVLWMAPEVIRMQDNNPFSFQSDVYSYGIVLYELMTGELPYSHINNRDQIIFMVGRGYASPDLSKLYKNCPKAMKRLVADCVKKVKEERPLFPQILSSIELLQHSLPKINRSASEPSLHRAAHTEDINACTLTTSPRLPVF

As for `N#Cc1cccc(-c2c[nH]c3ncnc(N4CCOCC4)c23)c1`, the % of control turned out to be 47% in assay [1] and 100% in assay [2].

As for `C=CC(=O)Nc1cccc(C(=O)Nc2ccc(Nc3cc(-c4[nH]c(SC)nc4C)ccn3)cc2)c1`, the % of control in assay [3] (at 1 µM) was determined as 97%; in assay [3] (at 5 µM) it was 88%.

The molecule `CN(C)CCOc1ccc(-c2nc(-c3ccncc3)c(-c3ccc4c(c3)CC/C4=N\O)[nH]2)cc1` showed a % of control in assay [4] of 81%.

Take `CCC(=O)N1CCN(c2ccc(-n3c(=O)ccc4cnc5ccc(-c6cnc7ccccc7c6)cc5c43)cc2C(F)(F)F)CC1`: the % of control in assay [5] was found to be 83%.

As to `Nc1cnc(N2CCc3cc(S(=O)(=O)Nc4c(F)cc(Cl)cc4F)cc(N4CCCC4=O)c32)nc1` [TP-020n], the % of control in assay [6] amounted to 92%.

In the case of `CC(=O)Nc1cccc(-n2c(=O)n(C3CC3)c(=O)c3c(Nc4ccc(I)cc4F)n(C)c(=O)c(C)c32)c1`, the % of control in assay [7] turned out to be 108%.
